Legend:
[1] = biological target: T1, Nuclear receptor ROR-beta (Homo sapiens, UniProt Q92753); experiment: Inverse agonist activity at human GAL4 DBD-fused RORbeta LBD (201 to 452 residues) expressed in HEK293T cells assessed as reduction in ROR mediated transcriptional activity after 24 hrs by dual glo luciferase reporter gene assay; format: cell-based
T1 sequence (Q92753 whole entry): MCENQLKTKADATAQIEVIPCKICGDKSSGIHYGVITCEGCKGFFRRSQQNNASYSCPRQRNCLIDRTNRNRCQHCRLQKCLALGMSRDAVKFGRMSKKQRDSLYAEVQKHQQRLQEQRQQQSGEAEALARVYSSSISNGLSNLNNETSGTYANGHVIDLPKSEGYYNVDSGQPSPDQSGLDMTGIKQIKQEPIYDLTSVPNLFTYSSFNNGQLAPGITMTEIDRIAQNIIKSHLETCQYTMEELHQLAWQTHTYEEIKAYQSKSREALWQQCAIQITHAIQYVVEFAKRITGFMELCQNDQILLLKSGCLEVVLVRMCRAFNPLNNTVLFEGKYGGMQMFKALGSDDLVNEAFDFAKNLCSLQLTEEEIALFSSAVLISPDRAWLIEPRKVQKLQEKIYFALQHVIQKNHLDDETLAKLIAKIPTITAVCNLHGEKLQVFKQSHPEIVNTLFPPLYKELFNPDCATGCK

Rattus norvegicus [2] = species: Rattus norvegicus; experiment: Displacement of [3H]flunitrazepam from rat brain central BZD at 10 uM after 60 mins relative to control
[3] = biological target: Small conductance calcium-activated potassium channel (Rattus norvegicus) (UniProt P70604+P70606+P70605); experiment: Displacement of [125I]apamin from rat brain SkCa channel at 10 uM after 60 mins by scintillation counting analysis relative to control
[4] = biological target: Adenosine receptor A1 (Homo sapiens) (UniProt P30542); experiment: Displacement of [3H]-DPCPX from human recombinant adenosine A1 receptor at 1 uM after 60 mins by scintillation counting analysis relative to control
Rattus norvegicus [5] = species: Rattus norvegicus; experiment: Displacement of [3H]flunitrazepam from rat brain central BZD at 1 uM after 60 mins relative to control
Rattus norvegicus [6] = species: Rattus norvegicus; experiment: Binding affinity to rat GABA receptor at 1 uM after 60 mins by agonist radioligand binding assay relative to control
Histamine H1 receptor = Histamine H1 receptor (Homo sapiens, UniProt P35367); experiment: Displacement of [3H]pyrilamine from human recombinant histamine H1 receptor at 1 uM after 60 mins by scintillation counting analysis relative to control
[7] = biological target: Muscarinic acetylcholine receptor M1 (Homo sapiens) (UniProt P11229); experiment: Displacement of […] from human recombinant M1 receptor at 1 uM after 60 mins by scintillation counting analysis relative to control
[8] = biological target: 5-hydroxytryptamine receptor 2B (Homo sapiens, UniProt P41595); experiment: Displacement of [125I]+/-DOI from human recombinant 5-HT2B receptor at 1 uM after 60 mins by scintillation counting analysis relative to control
Homo sapiens = species: Homo sapiens; experiment: Binding affinity to GABA-gated chloride channel (unknown origin) at 1 uM by antagonist radioligand binding assay relative to control
[9] = Binding affinity to rat GABA receptor after 60 mins by agonist radioligand binding assay
Neuromedin-K receptor = Neuromedin-K receptor (Homo sapiens, UniProt P29371); experiment: Displacement of [3H]SR 142801 from human recombinant NK3 receptor after 120 mins by scintillation counting analysis
[10] = biological target: Kappa-type opioid receptor (Homo sapiens, UniProt P41145); experiment: Displacement of [3H]U69593 from human kappa receptor after 60 mins by scintillation counting analysis
[11] = biological target: 5-hydroxytryptamine receptor 1A (Homo sapiens, UniProt P08908); experiment: Displacement of [3H]8-OH-DPAT from recombinant human 5-HT1A receptor after 60 mins by scintillation counting analysis
Vasopressin V1a receptor = Vasopressin V1a receptor (Homo sapiens, UniProt P37288); experiment: Displacement of [3H]AVP from human recombinant V1a receptor after 60 mins by scintillation counting analysis
[12] = biological target: Casein kinase II subunit alpha (Homo sapiens) (UniProt P68400); experiment: Inhibition of CK2alpha1 (unknown origin) at 10 uM in presence of ATP relative to control
[13] = biological target: Death-associated protein kinase 3 (Homo sapiens) (UniProt O43293); experiment: Inhibition of recombinant full length GST-tagged human ZIPK expressed in baculovirus expression system at 10 uM in presence of ATP relative to control
[14] = biological target: Receptor-type tyrosine-protein kinase FLT3 (Homo sapiens) (UniProt P36888); experiment: Inhibition of recombinant His-tagged human FLT3 (564 to 958 residues) cytoplasmic domain expressed in baculovirus expression system at 10 uM in presence of ATP relative to control
[15] = biological target: Inhibitor of nuclear factor kappa-B kinase subunit beta (Homo sapiens) (UniProt O14920); experiment: Inhibition of recombinant full length GST-tagged human IKKbeta expressed in baculovirus expression system at 10 uM in presence of ATP relative to control
[16] = biological target: Mitogen-activated protein kinase 1 (Homo sapiens) (UniProt P28482); experiment: Inhibition of recombinant GST-tagged human ERK2 expressed in Escherichia coli at 10 uM in presence of ATP relative to control
[17] = Thermodynamic solubility of the compound in fasted state simulated intestinal […] after 2 to 5 days by UV-HPLC analysis; format: physicochemical; conditions: read-out: Therm_solubility
[18] = Half life in rat microsomes; format: ADME, Microsome
Cytochrome P450 2C8 = biological target: T2, Cytochrome P450 2C8 (Homo sapiens, UniProt P10632); experiment: Inhibition of CYP2C8 (unknown origin); format: ADME
T2 sequence (P10632 whole entry): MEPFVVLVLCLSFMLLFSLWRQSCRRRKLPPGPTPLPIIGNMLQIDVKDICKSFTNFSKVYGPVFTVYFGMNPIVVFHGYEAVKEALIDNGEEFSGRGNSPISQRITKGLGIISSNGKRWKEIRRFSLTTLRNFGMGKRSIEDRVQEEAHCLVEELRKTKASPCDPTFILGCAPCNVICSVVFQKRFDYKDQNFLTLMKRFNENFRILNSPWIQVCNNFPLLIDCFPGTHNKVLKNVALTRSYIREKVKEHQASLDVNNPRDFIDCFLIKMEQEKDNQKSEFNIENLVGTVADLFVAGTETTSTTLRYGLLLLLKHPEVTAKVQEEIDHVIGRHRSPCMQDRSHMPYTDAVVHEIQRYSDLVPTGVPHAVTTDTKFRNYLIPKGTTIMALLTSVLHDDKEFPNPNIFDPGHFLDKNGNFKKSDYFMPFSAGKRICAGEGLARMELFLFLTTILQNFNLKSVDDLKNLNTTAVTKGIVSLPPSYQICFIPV

Cytochrome P450 2D6 = Cytochrome P450 2D6 (Homo sapiens, UniProt P10635); experiment: Inhibition of CYP2D6 (unknown origin); format: ADME
[19] = Initial plasma concentration in Sprague-Dawley rat at 1 mg/kg, iv; format: ADME, organism-based
[20] = Half life in Sprague-Dawley rat at 1 mg/kg, iv; format: ADME, organism-based; conditions: in vivo
[21] = Terminal half life in Sprague-Dawley rat at 5 mg/kg, po; format: ADME, organism-based; conditions: in vivo, read-out: beta t1/2 (converted)

Mitogen-activated protein kinase 1 (Homo sapiens), sequence (P28482 whole entry): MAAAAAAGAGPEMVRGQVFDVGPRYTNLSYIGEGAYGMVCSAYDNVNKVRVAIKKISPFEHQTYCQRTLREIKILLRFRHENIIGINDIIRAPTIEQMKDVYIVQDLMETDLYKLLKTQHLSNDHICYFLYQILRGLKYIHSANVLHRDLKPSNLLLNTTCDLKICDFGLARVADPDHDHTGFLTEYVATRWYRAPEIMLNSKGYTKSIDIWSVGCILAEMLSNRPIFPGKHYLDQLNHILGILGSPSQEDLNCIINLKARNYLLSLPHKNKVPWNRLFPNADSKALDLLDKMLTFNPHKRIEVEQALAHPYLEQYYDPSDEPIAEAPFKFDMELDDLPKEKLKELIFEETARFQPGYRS
5-hydroxytryptamine receptor 2B, sequence (P41595 whole entry): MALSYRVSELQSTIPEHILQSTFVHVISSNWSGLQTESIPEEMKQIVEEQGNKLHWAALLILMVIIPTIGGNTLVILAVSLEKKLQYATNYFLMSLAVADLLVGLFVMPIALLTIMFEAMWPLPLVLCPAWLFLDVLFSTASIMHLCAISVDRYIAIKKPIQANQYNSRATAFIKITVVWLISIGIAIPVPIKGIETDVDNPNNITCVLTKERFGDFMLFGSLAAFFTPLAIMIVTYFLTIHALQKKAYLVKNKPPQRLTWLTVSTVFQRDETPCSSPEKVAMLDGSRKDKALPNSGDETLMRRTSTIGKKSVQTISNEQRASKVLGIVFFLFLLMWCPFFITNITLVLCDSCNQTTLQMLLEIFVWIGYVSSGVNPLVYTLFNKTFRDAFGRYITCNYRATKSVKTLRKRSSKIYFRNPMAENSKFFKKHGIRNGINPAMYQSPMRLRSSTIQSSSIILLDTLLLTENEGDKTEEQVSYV
Histamine H1 receptor, sequence (P35367 whole entry): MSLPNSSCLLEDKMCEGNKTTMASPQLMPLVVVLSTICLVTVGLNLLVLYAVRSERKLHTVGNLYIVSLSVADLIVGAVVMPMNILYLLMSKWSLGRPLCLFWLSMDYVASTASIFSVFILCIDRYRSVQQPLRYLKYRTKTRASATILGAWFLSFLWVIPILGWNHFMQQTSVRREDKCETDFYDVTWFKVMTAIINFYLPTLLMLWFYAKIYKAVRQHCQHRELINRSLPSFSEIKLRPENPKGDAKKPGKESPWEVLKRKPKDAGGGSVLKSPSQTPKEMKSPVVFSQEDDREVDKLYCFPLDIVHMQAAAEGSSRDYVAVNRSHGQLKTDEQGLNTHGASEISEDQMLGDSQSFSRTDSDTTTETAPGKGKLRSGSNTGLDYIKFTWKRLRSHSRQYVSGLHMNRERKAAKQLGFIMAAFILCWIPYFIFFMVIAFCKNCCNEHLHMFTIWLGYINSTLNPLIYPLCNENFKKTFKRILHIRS
Neuromedin-K receptor, sequence (P29371 whole entry): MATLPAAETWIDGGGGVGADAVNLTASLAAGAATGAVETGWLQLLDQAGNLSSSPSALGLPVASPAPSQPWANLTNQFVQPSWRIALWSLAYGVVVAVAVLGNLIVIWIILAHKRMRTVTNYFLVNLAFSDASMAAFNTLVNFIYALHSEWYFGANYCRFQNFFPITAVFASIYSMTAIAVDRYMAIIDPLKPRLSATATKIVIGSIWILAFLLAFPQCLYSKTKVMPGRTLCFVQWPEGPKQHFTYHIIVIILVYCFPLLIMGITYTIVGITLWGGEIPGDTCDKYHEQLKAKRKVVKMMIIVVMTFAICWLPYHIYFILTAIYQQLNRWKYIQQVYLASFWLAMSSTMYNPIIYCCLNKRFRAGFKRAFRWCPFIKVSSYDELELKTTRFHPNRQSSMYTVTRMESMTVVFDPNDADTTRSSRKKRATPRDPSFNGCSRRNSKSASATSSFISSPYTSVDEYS
5-hydroxytryptamine receptor 1A, sequence (P08908 whole entry): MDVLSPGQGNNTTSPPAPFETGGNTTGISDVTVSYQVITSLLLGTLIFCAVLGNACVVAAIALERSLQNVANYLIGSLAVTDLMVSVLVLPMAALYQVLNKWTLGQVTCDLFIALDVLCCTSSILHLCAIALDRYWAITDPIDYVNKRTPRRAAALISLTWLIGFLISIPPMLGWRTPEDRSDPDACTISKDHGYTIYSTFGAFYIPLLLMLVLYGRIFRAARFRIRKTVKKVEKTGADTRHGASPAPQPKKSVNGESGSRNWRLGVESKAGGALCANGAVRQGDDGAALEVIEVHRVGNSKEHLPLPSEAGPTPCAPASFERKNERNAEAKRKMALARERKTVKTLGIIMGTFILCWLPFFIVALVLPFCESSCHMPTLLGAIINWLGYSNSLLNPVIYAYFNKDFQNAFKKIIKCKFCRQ
Cytochrome P450 2D6, sequence (P10635 whole entry): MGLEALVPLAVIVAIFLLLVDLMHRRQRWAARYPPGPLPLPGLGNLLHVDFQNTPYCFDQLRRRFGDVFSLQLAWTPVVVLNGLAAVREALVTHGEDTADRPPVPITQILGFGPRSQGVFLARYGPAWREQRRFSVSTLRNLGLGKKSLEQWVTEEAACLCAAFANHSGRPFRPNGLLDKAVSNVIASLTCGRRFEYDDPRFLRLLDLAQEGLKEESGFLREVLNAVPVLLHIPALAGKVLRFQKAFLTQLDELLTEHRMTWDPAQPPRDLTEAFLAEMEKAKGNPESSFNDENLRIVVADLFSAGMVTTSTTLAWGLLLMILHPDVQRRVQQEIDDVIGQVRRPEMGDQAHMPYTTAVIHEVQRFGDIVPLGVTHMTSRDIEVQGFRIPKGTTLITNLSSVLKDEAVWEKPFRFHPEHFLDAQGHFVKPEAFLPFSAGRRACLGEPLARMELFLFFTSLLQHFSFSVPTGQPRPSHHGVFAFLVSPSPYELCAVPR
Muscarinic acetylcholine receptor M1 (Homo sapiens), sequence (P11229 whole entry): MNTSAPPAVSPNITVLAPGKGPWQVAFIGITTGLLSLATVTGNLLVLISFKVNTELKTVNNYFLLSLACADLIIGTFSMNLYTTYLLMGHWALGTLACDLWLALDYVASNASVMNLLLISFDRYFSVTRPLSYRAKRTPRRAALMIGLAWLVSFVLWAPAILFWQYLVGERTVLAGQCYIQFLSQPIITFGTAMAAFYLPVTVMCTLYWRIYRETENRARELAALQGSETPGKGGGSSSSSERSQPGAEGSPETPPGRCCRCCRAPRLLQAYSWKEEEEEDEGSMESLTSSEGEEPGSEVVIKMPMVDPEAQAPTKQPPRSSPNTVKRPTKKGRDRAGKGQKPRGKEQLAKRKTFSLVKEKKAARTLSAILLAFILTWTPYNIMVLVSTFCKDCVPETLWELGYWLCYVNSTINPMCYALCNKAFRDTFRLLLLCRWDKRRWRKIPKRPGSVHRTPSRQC
Inhibitor of nuclear factor kappa-B kinase subunit beta (Homo sapiens), sequence (O14920 whole entry): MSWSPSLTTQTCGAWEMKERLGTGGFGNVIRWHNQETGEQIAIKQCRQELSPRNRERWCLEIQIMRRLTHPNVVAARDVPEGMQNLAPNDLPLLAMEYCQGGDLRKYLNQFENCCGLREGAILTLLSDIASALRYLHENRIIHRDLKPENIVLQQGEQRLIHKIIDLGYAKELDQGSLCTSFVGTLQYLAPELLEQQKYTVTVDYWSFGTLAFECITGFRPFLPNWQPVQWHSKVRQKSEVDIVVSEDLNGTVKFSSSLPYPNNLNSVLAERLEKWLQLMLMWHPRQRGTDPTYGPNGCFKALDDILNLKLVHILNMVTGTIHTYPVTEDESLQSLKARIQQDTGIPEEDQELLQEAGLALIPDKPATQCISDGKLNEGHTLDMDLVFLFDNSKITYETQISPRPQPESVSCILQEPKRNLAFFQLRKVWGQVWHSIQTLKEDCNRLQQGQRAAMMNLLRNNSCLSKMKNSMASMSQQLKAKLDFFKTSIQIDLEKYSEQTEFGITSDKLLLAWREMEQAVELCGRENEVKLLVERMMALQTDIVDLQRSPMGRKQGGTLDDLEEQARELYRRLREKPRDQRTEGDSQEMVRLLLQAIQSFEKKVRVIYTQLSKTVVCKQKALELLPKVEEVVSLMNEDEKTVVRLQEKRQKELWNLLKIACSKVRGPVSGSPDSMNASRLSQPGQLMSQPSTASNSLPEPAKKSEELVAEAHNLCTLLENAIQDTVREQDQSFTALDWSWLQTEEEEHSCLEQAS
Vasopressin V1a receptor, sequence (P37288 whole entry): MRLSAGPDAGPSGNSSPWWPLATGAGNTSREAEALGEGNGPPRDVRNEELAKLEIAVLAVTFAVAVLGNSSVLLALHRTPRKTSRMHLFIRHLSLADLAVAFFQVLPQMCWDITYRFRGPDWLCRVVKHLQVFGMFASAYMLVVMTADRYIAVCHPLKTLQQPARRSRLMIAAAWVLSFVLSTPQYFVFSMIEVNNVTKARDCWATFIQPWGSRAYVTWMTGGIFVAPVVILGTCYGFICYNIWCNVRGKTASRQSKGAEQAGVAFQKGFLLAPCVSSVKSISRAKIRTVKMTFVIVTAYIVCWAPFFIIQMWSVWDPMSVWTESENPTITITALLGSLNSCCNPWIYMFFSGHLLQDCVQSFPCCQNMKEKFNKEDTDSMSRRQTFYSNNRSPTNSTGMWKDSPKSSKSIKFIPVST
Kappa-type opioid receptor, sequence (P41145 whole entry): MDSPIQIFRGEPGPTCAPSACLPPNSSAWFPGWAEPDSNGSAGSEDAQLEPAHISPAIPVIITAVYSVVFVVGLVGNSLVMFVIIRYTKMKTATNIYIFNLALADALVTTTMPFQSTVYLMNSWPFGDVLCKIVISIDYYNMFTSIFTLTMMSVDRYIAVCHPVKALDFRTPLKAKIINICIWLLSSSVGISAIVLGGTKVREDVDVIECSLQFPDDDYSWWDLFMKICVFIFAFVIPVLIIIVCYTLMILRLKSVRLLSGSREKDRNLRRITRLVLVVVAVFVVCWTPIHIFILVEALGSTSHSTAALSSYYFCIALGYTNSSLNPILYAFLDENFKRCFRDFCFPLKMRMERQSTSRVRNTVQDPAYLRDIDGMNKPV

## CC(C)(C)NS(=O)(=O)c1ccc(-c2sc(C(=O)N[C@H]3C[C@H](C(=O)O)C3)nc2CC2CCCCC2)c2ccccc12
[1]
  IC50: 164 nM
Rattus norvegicus [2]
  inhibition: < 10%
[3]
  inhibition: < 10%
[4]
  inhibition: < 10%
Rattus norvegicus [5]
  inhibition: < 10%
Rattus norvegicus [6]
  inhibition: < 10%
Histamine H1 receptor
  inhibition: 11%
[7]
  inhibition: < 10%
[8]
  inhibition: < 10%
Homo sapiens
  inhibition: 14%
[9]
  IC50: 114 nM
Neuromedin-K receptor
  IC50: 8.2 nM
[10]
  IC50: 1.1 nM
[11]
  IC50: 0.43 nM
Vasopressin V1a receptor
  IC50: 1.1 nM
[12]
  inhibition: 0%
[13]
  inhibition: -5%
[14]
  inhibition: 0%
[15]
  inhibition: -4%
[16]
  inhibition: -6%
[17]
  solubility thermodynamic: > 400 µM
[18]
  half-life: 47 min
Cytochrome P450 2C8
  INH: 3.8 µM
Cytochrome P450 2D6
  INH: > 10 µM
[19]
  C0: 4430 ng/mL
[20]
  half-life: 42 min
[21]
  half-life: 126 min
